Test results: PubChem BioAssay (NCI)
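Protocol summary: plate cells (96-well), add compound at 5 concentrations, incubate 48 h, interpolate endpoints linearly. Abbreviation: GI50, concentration required for 50% inhibition of growth. TGI marks complete inhibition of growth.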

Tests used:
Test in all cases: NCI tumour cell line growth inhibition, 48 h
SW-620 colon = tested on: SW-620 colon
UO-31 renal = tested on: UO-31 renal
NCI-H23 lung = tested on: NCI-H23 lung
SK-MEL-28 melanoma = tested on: SK-MEL-28 melanoma
NCI-H522 lung = tested on: NCI-H522 lung
MALME-3M melanoma = tested on: MALME-3M melanoma
HOP-62 NSCLC = tested on: HOP-62 NSCLC
MDA-MB-435 = tested on: MDA-MB-435
786-0 renal = tested on: 786-0 renal
PC-3 prostate = tested on: PC-3 prostate
OVCAR-3 ovarian = tested on: OVCAR-3 ovarian
LOX IMVI melanoma = tested on: LOX IMVI melanoma
OVCAR-8 ovarian = tested on: OVCAR-8 ovarian
HL-60(TB) leukemia = tested on: HL-60(TB) leukemia
UACC-62 melanoma = tested on: UACC-62 melanoma
COLO 205 colon = tested on: COLO 205 colon
MDA-MB-231 breast = tested on: MDA-MB-231 breast
HS 578T breast = tested on: HS 578T breast
TK-10 renal = tested on: TK-10 renal
SNB-19 CNS = tested on: SNB-19 CNS
NCI-H226 lung = tested on: NCI-H226 lung
A498 renal = tested on: A498 renal
OVCAR-4 ovarian = tested on: OVCAR-4 ovarian
KM12 colon = tested on: KM12 colon
ACHN renal = tested on: ACHN renal
BT-549 breast = tested on: BT-549 breast
CCRF-CEM leukemia = tested on: CCRF-CEM leukemia
HCT-116 colon = tested on: HCT-116 colon
NCI/ADR-RES ovarian = tested on: NCI/ADR-RES ovarian
HCT-15 colon = tested on: HCT-15 colon
HOP-92 NSCLC = tested on: HOP-92 NSCLC
SF-539 CNS = tested on: SF-539 CNS
HCC-2998 colon = tested on: HCC-2998 colon
A549 NSCLC = tested on: A549 NSCLC
CAKI-1 renal = tested on: CAKI-1 renal
SK-OV-3 ovarian = tested on: SK-OV-3 ovarian
M14 melanoma = tested on: M14 melanoma
IGROV1 ovarian = tested on: IGROV1 ovarian
T-47D breast = tested on: T-47D breast
RXF 393 renal = tested on: RXF 393 renal
HT29 colon = tested on: HT29 colon
SN12C renal = tested on: SN12C renal
RPMI-8226 leukemia = tested on: RPMI-8226 leukemia
SK-MEL-5 melanoma = tested on: SK-MEL-5 melanoma
UACC-257 melanoma = tested on: UACC-257 melanoma
SR leukemia = tested on: SR leukemia
DU-145 prostate = tested on: DU-145 prostate
SK-MEL-2 melanoma = tested on: SK-MEL-2 melanoma
K-562 leukemia = tested on: K-562 leukemia
MCF7 breast = tested on: MCF7 breast
NCI-H460 lung = tested on: NCI-H460 lung
U251 CNS = tested on: U251 CNS
MOLT-4 leukemia = tested on: MOLT-4 leukemia
SNB-75 CNS = tested on: SNB-75 CNS
OVCAR-5 ovarian = tested on: OVCAR-5 ovarian
SF-295 CNS = tested on: SF-295 CNS
SF-268 CNS = tested on: SF-268 CNS

Compound `Cn1cc(C2=C(c3cn(C)c4ccccc34)C(=O)NC2=O)c2ccccc21` has a GI50 (SW-620 colon) of 0.88 µM, a TGI (SW-620 colon) of over 25 µM and a GI50 (UO-31 renal) of 2.49 µM. For the same compound, the TGI (UO-31 renal) was over 25 µM, the GI50 (NCI-H23 lung) was 2.3 µM and the TGI (NCI-H23 lung) was over 25 µM. For the same compound, the GI50 (SK-MEL-28 melanoma) was 3.71 µM, the TGI (SK-MEL-28 melanoma) was over 25 µM and the GI50 (NCI-H522 lung) was 0.433 µM. It also gave a TGI (NCI-H522 lung) of 2.52 µM, a GI50 (MALME-3M melanoma) of 4.42 µM and a TGI (MALME-3M melanoma) of over 25 µM. For the same compound, the GI50 (HOP-62 NSCLC) was 1.92 µM, the TGI (HOP-62 NSCLC) was over 25 µM and the GI50 (MDA-MB-435) was 0.095 µM. The TGI (MDA-MB-435) was over 6.61 µM, the GI50 (786-0 renal) was 1.52 µM and the TGI (786-0 renal) was over 25 µM. The GI50 (PC-3 prostate) was 1.12 µM, the TGI (PC-3 prostate) was over 25 µM and the GI50 (OVCAR-3 ovarian) was 0.646 µM. For the same compound, the TGI (OVCAR-3 ovarian) was over 6.67 µM, the GI50 (LOX IMVI melanoma) was 1.8 µM and the TGI (LOX IMVI melanoma) was over 25 µM. The GI50 (OVCAR-8 ovarian) was 2.96 µM, the TGI (OVCAR-8 ovarian) was over 25 µM and the GI50 (HL-60(TB) leukemia) was 0.747 µM. The TGI (HL-60(TB) leukemia) was 5.1 µM, the GI50 (UACC-62 melanoma) was 2.24 µM and the TGI (UACC-62 melanoma) was over 25 µM. The GI50 (COLO 205 colon) was 1.1 µM, the TGI (COLO 205 colon) was over 25 µM and the GI50 (MDA-MB-231 breast) was over 23.5 µM. The TGI (MDA-MB-231 breast) was over 25 µM, the GI50 (HS 578T breast) was 0.7 µM and the TGI (HS 578T breast) was over 19.9 µM. For the same compound, the GI50 (TK-10 renal) was 8.75 µM, the TGI (TK-10 renal) was over 25 µM and the GI50 (SNB-19 CNS) was 11.5 µM. The TGI (SNB-19 CNS) was over 25 µM, the GI50 (NCI-H226 lung) was 9.19 µM and the TGI (NCI-H226 lung) was over 25 µM. It also gave a GI50 (A498 renal) of 0.457 µM, a TGI (A498 renal) of over 25 µM and a GI50 (OVCAR-4 ovarian) of 5.01 µM. It also gave a TGI (OVCAR-4 ovarian) of over 25 µM, a GI50 (KM12 colon) of 0.948 µM and a TGI (KM12 colon) of over 25 µM. The GI50 (ACHN renal) was 2.25 µM, the TGI (ACHN renal) was over 25 µM and the GI50 (BT-549 breast) was 2.33 µM. It also gave a TGI (BT-549 breast) of over 25 µM, a GI50 (CCRF-CEM leukemia) of 0.952 µM and a TGI (CCRF-CEM leukemia) of over 25 µM. For the same compound, the GI50 (HCT-116 colon) was 1.17 µM, the TGI (HCT-116 colon) was over 25 µM and the GI50 (NCI/ADR-RES ovarian) was 1.55 µM. The TGI (NCI/ADR-RES ovarian) was over 25 µM, the GI50 (HCT-15 colon) was 0.729 µM and the TGI (HCT-15 colon) was over 25 µM. It also gave a GI50 (HOP-92 NSCLC) of 1.45 µM, a TGI (HOP-92 NSCLC) of over 7.23 µM and a GI50 (SF-539 CNS) of 0.738 µM. For the same compound, the TGI (SF-539 CNS) was 5.25 µM, the GI50 (HCC-2998 colon) was over 25 µM and the TGI (HCC-2998 colon) was over 25 µM. The GI50 (A549 NSCLC) was 1.97 µM, the TGI (A549 NSCLC) was over 25 µM and the GI50 (CAKI-1 renal) was 1.2 µM. It also gave a TGI (CAKI-1 renal) of over 25 µM, a GI50 (SK-OV-3 ovarian) of 1.51 µM and a TGI (SK-OV-3 ovarian) of over 25 µM. The GI50 (M14 melanoma) was 1.9 µM, the TGI (M14 melanoma) was over 25 µM and the GI50 (IGROV1 ovarian) was 11.7 µM. The TGI (IGROV1 ovarian) was over 25 µM, the GI50 (T-47D breast) was 1.8 µM and the TGI (T-47D breast) was over 25 µM. For the same compound, the GI50 (RXF 393 renal) was 0.825 µM, the TGI (RXF 393 renal) was 14.5 µM and the GI50 (HT29 colon) was 0.775 µM. For the same compound, the TGI (HT29 colon) was over 25 µM, the GI50 (SN12C renal) was 3.47 µM and the TGI (SN12C renal) was over 25 µM. The GI50 (RPMI-8226 leukemia) was over 8.42 µM, the TGI (RPMI-8226 leukemia) was over 25 µM and the GI50 (SK-MEL-5 melanoma) was 0.873 µM. For the same compound, the TGI (SK-MEL-5 melanoma) was over 25 µM, the GI50 (UACC-257 melanoma) was 4.17 µM and the TGI (UACC-257 melanoma) was over 25 µM. The GI50 (SR leukemia) was 0.248 µM, the TGI (SR leukemia) was over 25 µM and the GI50 (DU-145 prostate) was 1.66 µM. The TGI (DU-145 prostate) was over 25 µM, the GI50 (SK-MEL-2 melanoma) was 0.894 µM and the TGI (SK-MEL-2 melanoma) was over 14 µM. The GI50 (K-562 leukemia) was 0.235 µM, the TGI (K-562 leukemia) was over 25 µM and the GI50 (MCF7 breast) was 0.72 µM. For the same compound, the TGI (MCF7 breast) was over 25 µM, the GI50 (NCI-H460 lung) was 1.12 µM and the TGI (NCI-H460 lung) was over 25 µM. For the same compound, the GI50 (U251 CNS) was 1.26 µM, the TGI (U251 CNS) was over 25 µM and the GI50 (MOLT-4 leukemia) was 4.81 µM. The TGI (MOLT-4 leukemia) was over 25 µM, the GI50 (SNB-75 CNS) was 0.306 µM and the TGI (SNB-75 CNS) was 1.64 µM. For the same compound, the GI50 (OVCAR-5 ovarian) was over 25 µM, the TGI (OVCAR-5 ovarian) was over 25 µM and the GI50 (SF-295 CNS) was 0.903 µM. For the same compound, the TGI (SF-295 CNS) was over 25 µM, the GI50 (SF-268 CNS) was 3.1 µM and the TGI (SF-268 CNS) was over 25 µM.
